In ChEMBL document CHEMBL1201862, “PubChem BioAssay data set” (2004):
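96-well plates; 48 h exposure; 5 concentrations. Endpoints by linear interpolation between flanking doses. Not reached: highest tested concentration assigned. The concentration for 50% growth inhibition is given as GI50.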 Active and inactive are the calls of the source. Cut-off read from the data, not from the text of the source: active = GI50 up to about 1.1 µM and inactive = higher.

How the values were obtained:
Test in all cases: growth of human tumour cells (NCI), 48 h
786-0 = system: 786-0
A498 = system: A498
A549 = system: A549
ACHN = system: ACHN
BT-549 = system: BT-549
CAKI-1 = system: CAKI-1
CCRF-CEM = system: CCRF-CEM
COLO 205 = system: COLO 205
DU-145 = system: DU-145
EKVX = system: EKVX
HCC 2998 = system: HCC 2998
HCT-116 = system: HCT-116
HCT-15 = system: HCT-15
HL-60 = system: HL-60
HOP-62 = system: HOP-62
HOP-92 = system: HOP-92
HT-29 = system: HT-29
IGROV-1 = system: IGROV-1
K562 = system: K562
LOX IMVI = system: LOX IMVI
M14 = system: M14
MCF7 = system: MCF7
MDA-MB-231 = system: MDA-MB-231
MDA-MB-435 = system: MDA-MB-435
MDA-N = system: MDA-N
Malme-3M = system: Malme-3M
NCI-H23 = system: NCI-H23
NCI-H460 = system: NCI-H460
NCI-H522 = system: NCI-H522
NCI/ADR-RES = system: NCI/ADR-RES
OVCAR-3 = system: OVCAR-3
OVCAR-4 = system: OVCAR-4
OVCAR-5 = system: OVCAR-5
OVCAR-8 = system: OVCAR-8
PC-3 = system: PC-3
SF-268 = system: SF-268
SF-295 = system: SF-295
SF-539 = system: SF-539
SK-MEL-28 = system: SK-MEL-28
SK-MEL-2 = system: SK-MEL-2
SK-MEL-5 = system: SK-MEL-5
SK-OV-3 = system: SK-OV-3
SN12C = system: SN12C
SNB-19 = system: SNB-19
SNB-75 = system: SNB-75
SR = system: SR
SW-620 = system: SW-620
TK-10 = system: TK-10
U-251 = system: U-251
UACC-257 = system: UACC-257
UACC-62 = system: UACC-62
UO-31 = system: UO-31
Hs-578T = system: Hs-578T
KM12 = system: KM12
MOLT-4 = system: MOLT-4
NCI-H226 = system: NCI-H226
RPMI-8226 = system: RPMI-8226
RXF 393 = system: RXF 393
T47D = system: T47D

For `NC(=S)C1=C(N)Oc2c(c(=O)oc3ccccc23)C1c1ccc(Br)cc1` (stereo not drawn), the GI50 (786-0) was > 100 µM (inactive), the GI50 (A498) was 63.2 µM (inactive) and the GI50 (A549) was > 100 µM (inactive). The GI50 (ACHN) was > 100 µM (inactive), the GI50 (BT-549) was > 100 µM (inactive) and the GI50 (CAKI-1) was > 100 µM (inactive). The GI50 (CCRF-CEM) was 36.3 µM (inactive), the GI50 (COLO 205) was > 100 µM (inactive) and the GI50 (DU-145) was > 100 µM (inactive). For the same compound, the GI50 (EKVX) was > 100 µM (inactive), the GI50 (HCC 2998) was > 100 µM (inactive) and the GI50 (HCT-116) was > 100 µM (inactive). The GI50 (HCT-15) was over 100 µM, the GI50 (HL-60) was 50.8 µM (inactive) and the GI50 (HOP-62) was > 100 µM (inactive). The GI50 (HOP-92) was 40 µM (inactive), the GI50 (HT-29) was > 100 µM (inactive) and the GI50 (IGROV-1) was > 100 µM (inactive). For the same compound, the GI50 (K562) was 42.1 µM (inactive), the GI50 (LOX IMVI) was > 100 µM (inactive) and the GI50 (M14) was > 100 µM (inactive). The GI50 (MCF7) was > 100 µM (inactive), the GI50 (MDA-MB-231) was > 100 µM (inactive) and the GI50 (MDA-MB-435) was > 100 µM (inactive). The GI50 (MDA-N) was > 100 µM (inactive), the GI50 (Malme-3M) was > 100 µM (inactive) and the GI50 (NCI-H23) was > 100 µM (inactive). The GI50 (NCI-H460) was > 100 µM (inactive), the GI50 (NCI-H522) was 74.8 µM (inactive) and the GI50 (NCI/ADR-RES) was > 100 µM (inactive). The GI50 (OVCAR-3) was > 100 µM (inactive), the GI50 (OVCAR-4) was > 100 µM (inactive) and the GI50 (OVCAR-5) was > 100 µM (inactive). For the same compound, the GI50 (OVCAR-8) was > 100 µM (inactive), the GI50 (PC-3) was > 100 µM (inactive) and the GI50 (SF-268) was > 100 µM (inactive). For the same compound, the GI50 (SF-295) was > 100 µM (inactive), the GI50 (SF-539) was > 100 µM (inactive) and the GI50 (SK-MEL-28) was > 100 µM (inactive). The GI50 (SK-MEL-2) was > 100 µM (inactive), the GI50 (SK-MEL-5) was > 100 µM (inactive) and the GI50 (SK-OV-3) was > 100 µM (inactive). For the same compound, the GI50 (SN12C) was > 100 µM (inactive), the GI50 (SNB-19) was > 100 µM (inactive) and the GI50 (SNB-75) was 82.6 µM (inactive). For the same compound, the GI50 (SR) was 1.61 µM (inactive), the GI50 (SW-620) was > 100 µM (inactive) and the GI50 (TK-10) was > 100 µM (inactive). For the same compound, the GI50 (U-251) was > 100 µM (inactive), the GI50 (UACC-257) was > 100 µM (inactive) and the GI50 (UACC-62) was > 100 µM (inactive). For the same compound, the GI50 (UO-31) was > 100 µM (inactive).
`COC1C=COC2(C)Oc3c(C)c(O)c4c(O)c(c(C5SCCS5)c(O)c4c3C2=O)NC(=O)/C(C)=C\C=CC(C)C(O)C(C)C(O)C(C)C(OC(C)=O)C1C` (stereo not drawn) was tested, and the GI50 (786-0) was 8.87 µM (inactive), the GI50 (A498) was 13.1 µM (inactive) and the GI50 (A549) was 6.79 µM (inactive). For the same compound, the GI50 (ACHN) was 3.01 µM (inactive), the GI50 (BT-549) was 3.84 µM (inactive) and the GI50 (CAKI-1) was 9.91 µM (inactive). The GI50 (CCRF-CEM) was 2.26 µM (inactive), the GI50 (COLO 205) was 2.49 µM (inactive) and the GI50 (DU-145) was 1.29 µM (inactive). The GI50 (HCT-116) was 5.02 µM (inactive), the GI50 (HCT-15) was 9.66 µM and the GI50 (HL-60) was 4.02 µM (inactive). For the same compound, the GI50 (HOP-62) was 10.9 µM (inactive), the GI50 (HOP-92) was 10.1 µM (inactive) and the GI50 (HT-29) was 3.49 µM (inactive). For the same compound, the GI50 (Hs-578T) was 13.4 µM (inactive), the GI50 (IGROV-1) was 7.33 µM (inactive) and the GI50 (K562) was 3.66 µM (inactive). The GI50 (KM12) was 5.35 µM (inactive), the GI50 (LOX IMVI) was 2.18 µM (inactive) and the GI50 (M14) was 6.19 µM (inactive). The GI50 (MCF7) was 4.24 µM (inactive), the GI50 (MDA-MB-231) was 5.71 µM (inactive) and the GI50 (MDA-MB-435) was 4.26 µM (inactive). For the same compound, the GI50 (MOLT-4) was 2.32 µM (inactive), the GI50 (Malme-3M) was 8.11 µM (inactive) and the GI50 (NCI-H226) was 9.04 µM (inactive). The GI50 (NCI-H23) was 4.69 µM (inactive), the GI50 (NCI-H460) was 4.26 µM (inactive) and the GI50 (NCI-H522) was 4.75 µM (inactive). For the same compound, the GI50 (NCI/ADR-RES) was 15.5 µM (inactive), the GI50 (OVCAR-3) was 4.99 µM (inactive) and the GI50 (OVCAR-4) was 7.33 µM (inactive). The GI50 (OVCAR-5) was 12.7 µM (inactive), the GI50 (OVCAR-8) was 7.87 µM (inactive) and the GI50 (PC-3) was 4.98 µM (inactive). For the same compound, the GI50 (RPMI-8226) was 2.71 µM (inactive), the GI50 (RXF 393) was 6.05 µM (inactive) and the GI50 (SF-268) was 11 µM (inactive). The GI50 (SF-295) was 4.74 µM (inactive), the GI50 (SF-539) was 8.15 µM (inactive) and the GI50 (SK-MEL-28) was 6.56 µM (inactive). The GI50 (SK-MEL-2) was 6.43 µM (inactive), the GI50 (SK-MEL-5) was 7.89 µM (inactive) and the GI50 (SK-OV-3) was 14.1 µM (inactive). The GI50 (SN12C) was 2.55 µM (inactive), the GI50 (SNB-19) was 4.88 µM (inactive) and the GI50 (SNB-75) was 7.53 µM (inactive). The GI50 (SR) was 3.15 µM (inactive), the GI50 (SW-620) was 5.42 µM (inactive) and the GI50 (T47D) was 3.1 µM (inactive). For the same compound, the GI50 (TK-10) was 3.21 µM (inactive), the GI50 (U-251) was 3.95 µM (inactive) and the GI50 (UACC-257) was 4.7 µM (inactive). The GI50 (UACC-62) was 6.18 µM (inactive) and the GI50 (UO-31) was 12.1 µM (inactive).
With `O=C1/C(=C/c2cccc(Br)c2)CSC/C1=C\c1cccc(Br)c1` the GI50 (786-0) was 3.45 µM (inactive), the GI50 (A549) was 4.32 µM (inactive) and the GI50 (ACHN) was 2.87 µM (inactive). The GI50 (BT-549) was 2.13 µM (inactive), the GI50 (CAKI-1) was 2.47 µM (inactive) and the GI50 (CCRF-CEM) was 1.4 µM (inactive). For the same compound, the GI50 (COLO 205) was 2.9 µM (inactive), the GI50 (DU-145) was 8.69 µM (inactive) and the GI50 (EKVX) was 5.68 µM (inactive). The GI50 (HCC 2998) was 1.78 µM (inactive), the GI50 (HCT-116) was 1.78 µM (inactive) and the GI50 (HCT-15) was 2.51 µM. For the same compound, the GI50 (HL-60) was 1.92 µM (inactive), the GI50 (HOP-62) was 2.72 µM (inactive) and the GI50 (HOP-92) was 3.36 µM (inactive). The GI50 (HT-29) was 2.29 µM (inactive), the GI50 (IGROV-1) was 3.04 µM (inactive) and the GI50 (K562) was 2.36 µM (inactive). The GI50 (KM12) was 1.99 µM (inactive), the GI50 (LOX IMVI) was 1.57 µM (inactive) and the GI50 (M14) was 2.4 µM (inactive). For the same compound, the GI50 (MCF7) was 3.17 µM (inactive), the GI50 (MDA-MB-231) was 4.2 µM (inactive) and the GI50 (MDA-N) was 2.65 µM (inactive). The GI50 (MOLT-4) was 1.87 µM (inactive), the GI50 (Malme-3M) was 1.92 µM (inactive) and the GI50 (NCI-H226) was 3.72 µM (inactive). For the same compound, the GI50 (NCI-H23) was 3.66 µM (inactive), the GI50 (NCI-H460) was 2.57 µM (inactive) and the GI50 (NCI-H522) was 1.87 µM (inactive). The GI50 (NCI/ADR-RES) was 2.34 µM (inactive), the GI50 (OVCAR-3) was 3.38 µM (inactive) and the GI50 (OVCAR-4) was 2.82 µM (inactive). The GI50 (OVCAR-5) was 4.88 µM (inactive), the GI50 (OVCAR-8) was 1.9 µM (inactive) and the GI50 (PC-3) was 2.5 µM (inactive). For the same compound, the GI50 (RPMI-8226) was 0.537 µM (active), the GI50 (RXF 393) was 1.79 µM (inactive) and the GI50 (SF-268) was 5.33 µM (inactive). For the same compound, the GI50 (SF-295) was 2.24 µM (inactive), the GI50 (SF-539) was 2.53 µM (inactive) and the GI50 (SK-MEL-28) was 2.65 µM (inactive). The GI50 (SK-MEL-2) was 3.08 µM (inactive), the GI50 (SK-MEL-5) was 1.87 µM (inactive) and the GI50 (SK-OV-3) was 5.79 µM (inactive). The GI50 (SN12C) was 2.25 µM (inactive), the GI50 (SNB-19) was 2.88 µM (inactive) and the GI50 (SR) was 2 µM (inactive). For the same compound, the GI50 (SW-620) was 2.73 µM (inactive), the GI50 (T47D) was 4.89 µM (inactive) and the GI50 (TK-10) was 5.69 µM (inactive). The GI50 (U-251) was 1.87 µM (inactive), the GI50 (UACC-257) was 2.38 µM (inactive) and the GI50 (UACC-62) was 1.65 µM (inactive). For the same compound, the GI50 (UO-31) was 2.04 µM (inactive).
